Experimental data published in patent US8722654B2, “Lipoxin analogs as novel inhibitors of angiogenesis” (The Brigham and Women's Hospital, Inc., priority 2001, dated 2014).

Assays:
HUVEC [1] = assay: Endothelial cell migration, 48-well chemotaxis chamber; format: cell-based, human; settings: for induction of endothelial cell migration, compound alone: 100 nM, no VEGF
Description: VEGF, ATL-1 or vehicle were added to the lower wells of a 48-well chemotaxis chamber (NeuroProbe, Cabin John, Md.). The wells were overlaid with a 10 μm pore size polycarbonate filter coated with 0.1% gelatin. HUVEC (1×10^6) were placed in the upper wells and the chamber was incubated (37° C., 5% CO2 for 12 h). Following incubations, filters were removed, scraped of cells from the upper surface, fixed and stained with Diff-Quik (Dade Behring, Newark, Del.). Cells that migrated across the filter toward the lower surface were enumerated by light microscopy; four fields were counted at high magnification (100×). Incubations were performed in triplicate. To assess inhibition, endothelial cells were suspended in media with vehicle or ATL-1 for 15 min before placement in the chamber.

HUVEC [2] = assay: Inhibition of VEGF-stimulated HUVEC proliferation (MTT); format: cell-based, human; settings: for % inhibition of VEGF-stimulated proliferation: equimolar 10 nM, representative experiment
Description: (§1) Human umbilical vein endothelial cells (HUVEC) were isolated by 0.1% collagenase digestion (Worthington Biochemical, Bedford, Mass.) and propagated on gelatin-coated (0.1%) tissue culture plates in medium 199 (Gibco BRL, Grand Island, N.Y.) supplemented with 20% heat-inactivated fetal bovine serum (BioWhittaker, Walkersville, Md.), 50 μg/ml of endothelial cell mitogen (Biomedical Technologies, Stoughton, Mass.), 8 U/ml heparin (APP, Los Angeles, Calif.), 50 U/ml penicillin and 15 μg/ml streptomycin. Only passages 2 and 3 were used in reported experiments.
(§2) HUVEC (5×10^3) were plated in 96-well plates coated with 0.1% gelatin for 1 h at room temperature. After 24 h, the medium was removed and replaced with fresh medium 199 supplemented with 5% fetal bovine serum and different concentrations of recombinant human VEGF165 (R&D Systems, Minneapolis, Minn.), LTD4 or LTB4. Endothelial cells were enumerated after 72 h using the MTT® assay (Sigma, St. Louis, Mo.) (15). ATL-1 was prepared as in Clish et al. (13). Percent inhibition was evaluated in a similar manner and included a 15 minute incubation (37° C.) with 15-epi-lipoxin A4, 15-epi-16-(para-fluoro)-phenoxy-lipoxin A4 methyl ester (ATL-1), LXA4, 15-epi-LXA4 or 15-R/S-methyl, LXA4 prior to the addition of agonists. All incubations were performed in triplicate. Before each experiment the integrity and concentration of ATL-1, LXA4, 15-epi-LXA4 or 15-R/S-methyl, LXA4 was assessed by physical methods including LC/MS/MS and UV (13).

HUVEC [3] = assay: HUVEC proliferation induced by the compound alone (MTT); format: cell-based, human
Description: as §1, §2

HUVEC [4] = assay: Quantitative determination of DNA fragmentation (apoptosis); format: cell-based, human; settings: 100 nM alone or with VEGF 3 ng/ml; n=2, d=3
Description: DNA fragmentation in individual apoptotic cells was quantitated using a photometric enzyme immunoassay (Apotosis detection kit: R&D Systems). HUVECs grown in 96-well microtiter plates (5×10^3 cells/well) were incubated for 3 days, fixed with 3.7% formaldehyde, and permeabilized with proteinase K before the labeling. Biotinylated nucleotides are incorporated onto the DNA fragments and detected by using steptavidin-horseradish peroxidase conjugate followed by the substrate TACS-Sapphire.

[5] = Mean arterial pressure after i.v. dosing; format: in vivo; settings: 10 μg/mouse i.v.
HUVEC [6] = assay: HUVEC viability, trypan blue exclusion assay; format: cell-based, human; settings: after exposure to ATL-1
HUVEC [7] = assay: Inhibition of LTD4-stimulated HUVEC proliferation (MTT); format: cell-based, human; settings: LTD4 10 nM; ATL-1 0.1-100 nM; read-out: IC50, antagonism of mitogenic action of LTD4
Description: as §1
as §2, with “Endothelial cells were enumerated after 72 h using the MTT® assay (Sigma, St. Louis, Mo.) (15). ATL-1 was prepared as in Clish et al. (13).” left out, “All incubations were performed in triplicate.” left out

murine air pouch = assay: Inflammatory angiogenesis, VEGF-treated murine air pouch; format: in vivo, mice (BALB/c)
Description: Angiogenesis was assessed with murine air pouches that were raised via subcutaneous injection of sterile air (3 ml) beneath the dorsal skin of anesthetized mice (BALB/c, male 6-8 wk). After 24 hrs, ATL-1 (10 μg/pouch) or vehicle was delivered locally, immediately before the injection of VEGF (1 μg/pouch). The vascular content was assessed by the formation of vascular casts (as in 16). Briefly, mice were anesthetized (at 144 h) and peripheral vasodilation was raised by placing the animals in a heated jacket (40° C., 10 min). Vascular casts were formed by the i.v. injection of 1 ml 5% carmine red (Sigma) in 5% gelatin solution warmed to 40° C. Air pouch linings were dissected and weighed. The tissue was then dissolved in 2 ml of 3 N NaOH solution for 0.5 h, 21° C. and completely digested in hot water (56° C.) for 10 min. Digested samples were centrifuged (2500 rpm, 15 min) and filtered through a 0.45 μm filter. The dye content was quantified employing a 96-well plate spectrophotometer at 530 nm using a calibration curve. The results were expressed as vascular index (VI) as micrograms carmine dye/milligram weight of tissue, for n=4 animals/group. For visualization of the vasculature, the dorsal surface of the pouches was excised and fixed in formalin for 48 h. The tissues were dehydrated with 100% ethanol (5 days, 4° C.) and cleared by immersion in cedar wood oil for 2 weeks. In another set of experiments, mice were anesthetized and injected i.v. with 200 μl of 0.05 g/ml fluorescein isothiocyanate-dextran (Sigma) in PBS at 144 h immediately before sacrifice. Dissected linings were fixed, mounted on glass slides and examined for fluorescence (Nikon Eclipse model E600). In both protocols, the observers were not blinded to the treatments.
Air pouch membranous tissues were fixed in 10% buffered formalin overnight and processed for paraffin embedding. Five-micrometer paraffin sections of membrane tissue cut on face were used for immunohistochemistry for CD31 expression. Briefly, slides were deparaffinized and pretreated in 0.25% trypsin (Sigma Chemical) for 20 min at 37° C., followed by washing in distilled water. All further steps were performed at room temperature in a hydrated chamber. Slides were pretreated with Peroxidase Block (DAKO, Carpinteria, Calif.) for 5 min to quench endogenous peroxidase activity, followed by a 1:5 dilution of goat serum in 50 Mm Tris-Cl, pH 7.4, for 20 min to block nonspecific binding sites. Primary rat anti-murine CD31 antibody (BD PharMingen, San Diego, Calif.) was applied at a 1:100 dilution in 50 mMTris-Cl, pH 7.4, with 3% goat serum for 1 h. After washing in 50 mM Tris-Cl, pH 7.4, secondary rabbit anti-rat antibody (DAKO) was applied at a 1:200 dilution in 50 mM Tris-Cl, pH 7.4, with 3% goat serum for 30 min. Slides were washed again in 50 mM Tris-Cl, pH 7.4, and goat anti-rabbit horseradish peroxidase-conjugated antibody (Envision detection kit: DAKO) was applied for 30 min. After further washing, immunoperoxidase staining was developed using a DAB chromogen kit (DAKO) per the manufacturer and counterstained with hematoxylin.

## CCCCCC(C)(O)/C=C/C=C\C=C\C=C\[C@@H](O)[C@@H](O)CCCC(=O)OC (relative stereo) [15-R/S-methyl, LXA4, 5S,6R,15R/S-trihydroxy-15-methyl-7,9,13-trans-11-cis-eicosatetraenoic acid, methyl ester]
HUVEC [1]
  induction of endothelial cell migration, compound alone: did not induce endothelial cell migration
HUVEC [1]; VEGF 3 ng/ml
  inhibition of VEGF-stimulated HUVEC migration: concentration-dependent inhibition

## CCCCC[C@@H](O)/C=C/C=C\C=C\C=C\[C@@H](O)[C@@H](O)CCCC(=O)O (relative stereo) [15-epi-LXA4, 5S,6R,15R-trihydroxy-7,9,13-trans-11-cis-eicosatetraenoic acid]
HUVEC [2]
  % inhibition of VEGF-stimulated proliferation: 59.8±1.8%
HUVEC [1]
  induction of endothelial cell migration, compound alone: did not induce endothelial cell migration
HUVEC [1]; VEGF 3 ng/ml
  inhibition of VEGF-stimulated HUVEC migration: concentration-dependent inhibition

## CCCCC[C@H](O)/C=C/C=C\C=C\C=C\[C@@H](O)[C@@H](O)CCCC(=O)O (relative stereo) [LXA4, 5S,6R,15S-trihydroxy-7,9,13-trans-11-cis-eicosatetraenoic acid]
HUVEC [2]
  % inhibition of VEGF-stimulated proliferation: 38.1±2.0%
HUVEC [1]
  induction of endothelial cell migration, compound alone: did not induce endothelial cell migration
HUVEC [1]; VEGF 3 ng/ml
  inhibition of VEGF-stimulated HUVEC migration: concentration-dependent inhibition

## CCCCC[C@H](O)[C@@H](O)/C=C/C=C/C=C\C=C\[C@@H](O)CCCC(=O)O [14-epi-LXB4]
HUVEC [3]; 0.1 nM
  Percent of Proliferation: 15.5 ± 1.0%
HUVEC [3]; 1.0 nM
  Percent of Proliferation: 18.3 ± 1.6%
HUVEC [3]; 10 nM
  Percent of Proliferation: 27.0 ± 5.0%
HUVEC [3]; 100 nM
  Percent of Proliferation: 27.7 ± 1.3%

## CCCCC[C@H](O)[C@H](O)/C=C/C=C/C=C\C=C\[C@@H](O)CCCC(=O)O [15-epi-LXB4]
HUVEC [3]; 0.1 nM
  Percent of Proliferation: 20.1 ± 1.2%
HUVEC [3]; 1.0 nM
  Percent of Proliferation: 26.1 ± 2.8%
HUVEC [3]; 10 nM
  Percent of Proliferation: 34.0 ± 2.5%
HUVEC [3]; 100 nM
  Percent of Proliferation: 35.2 ± 5.2%

## O=C(O)CCC[C@H](O)[C@H](O)/C=C/C=C/C=C\C=C\[C@@H](O)COc1ccc(F)cc1 [ATL-1, 15-epi-16-(para-fluoro)-phenoxy-lipoxin A4]
HUVEC [4]
  DNA fragmentation pattern: Neither the ATL-1 (100 nM) alone nor in combination with VEGF (3 ng/ml) affected DNA fragmentation pattern
[5]
  changes in mean arterial pressure: does not evoke apparent changes
HUVEC [6]
  HUVEC remaining viable: ~98%
HUVEC [7]
  IC50: ~3 nM
HUVEC [2]; ATL-1 plus genistein 50 μM, 5 min, 37° C., n=3
  % of VEGF-stimulated proliferation: 78.0±6.21%
HUVEC [2]; ATL-1 without genistein
  % of VEGF-stimulated proliferation: 38.0±2.5%
HUVEC [2]; VEGF 3 ng/ml, 3 days, MTT, read-out: IC50, inhibition of VEGF-stimulated proliferation of HUVECs
  IC50: ~3 nM
HUVEC [2]; VEGF-stimulated proliferation
  concentration of maximal plateau of inhibition: 10 nM
HUVEC [2]
  % inhibition of VEGF-stimulated proliferation: 63.3±3.3%
Murine air pouch; 10 μg/pouch local, before VEGF 1 μg/pouch, day 6
  reduction in the vascular index: ~48%
Murine air pouch; 10 μg/pouch, day 6
  VEGF-elicited vasculature, fluorescein isothiocyanate-dextran microscopy: striking reduction of VEGF-elicited vasculature
Murine air pouch; VEGF-treated mice
  vessels by CD31 immunohistochemical staining: marked diminution of vessels
Murine air pouch; VEGF-treated, day 6 air pouch linings
  vascular density, carmine vascular casts: clearly reduced vascular density
HUVEC [3]; 100 nM, no VEGF
  action on HUVEC proliferation, analog alone: no apparent actions
HUVEC [1]; 10 nM, VEGF 3 ng/ml
  maximum level of inhibition of VEGF-stimulated HUVEC migration: ~45%
HUVEC [1]
  induction of endothelial cell migration, compound alone: did not induce endothelial cell migration
HUVEC [1]; VEGF 3 ng/ml
  inhibition of VEGF-stimulated HUVEC migration: concentration-dependent inhibition

## CCCCC/C=C\C[C@@H](O)/C=C/C=C/C=C\[C@@H](O)CCCC(=O)O [LTB4, reference compound]
Murine air pouch; 10 μg/pouch alone, n=2
  neovascularization, compound alone: stimulated neovascularization
HUVEC [3]; 10 nM
  stimulated proliferation of HUVEC: did not give a significant response

## CCCCC/C=C\C\C=C/C=C/C=C/[C@@H](SC[C@H](N)C(=O)NCC(=O)O)[C@@H](O)CCCC(=O)O [LTD4, reference compound]
HUVEC [2]
  effect of LTD4 on VEGF-stimulated proliferation: did not enhance or inhibit
HUVEC [3]; 10 nM
  stimulated proliferation of HUVEC: 42±1.2%

## VEGF [reference compound]
HUVEC [3]; VEGF comparison in LTD4 experiment
  VEGF response, proliferation of HUVEC: 52.7±1.6%
HUVEC [3]; footnote of table, VEGF comparison
  VEGF-induced proliferation: VEGF-induced proliferation: 50.4 ± 4.0%
